Results reported in patent US20250145665A1, “MACROCYCLIC PEPTIDES USEFUL AS MODULATORS OF TNF ALPHA” (Bristol-Myers Squibb Company, priority 2023, published 2025).
Starred links: 1 amine or outer side, 2 acyl side, 3 side chain; linkers in the order of their positions; H or OH if unused. Positions of bridges follow the written chain, without caps; N, C: chain ends. Non-standard residues stand in square brackets, D forms with d. Residues, ends and D or L forms follow the SMILES beside them. *: point of attachment. Bip(4'-NHCO-C6H4-3-CH2COOH) = N[C@@H](Cc1ccc(-c2ccc(NC(=O)c3cccc(CC(=O)O)c3)cc2)cc1)C(=O)O; Bip(4'-NHCO-C6H4-4-CH2COOH) = N[C@@H](Cc1ccc(-c2ccc(NC(=O)c3ccc(CC(=O)O)cc3)cc2)cc1)C(=O)O; X5 = Cn1nc(C(=O)Nc2ccc(-c3ccc(C[C@H](N[*:1])C(=O)[*:2])cc3)cc2)c2ccccc21; X73 = O=C(O)CCCC(=O)Nc1ccc(-c2ccc(C[C@H](N[*:1])C(=O)[*:2])cc2)cc1; Bip(4'-NH) = O=C([C@H](Cc1ccc(-c2ccc(N[*:3])cc2)cc1)N[*:1])[*:2]; Bip(4'-CONHMe) = CNC(=O)c1ccc(-c2ccc(C[C@H](N)C(=O)O)cc2)cc1; dArg(ω-Bn(3-CH2OH)) = N=C(NCCC[C@@H](N)C(=O)O)NCc1cccc(CO)c1; Bip(4'-COOH) = N[C@@H](Cc1ccc(-c2ccc(C(=O)O)cc2)cc1)C(=O)O; Bip(4'-NHAc) = CC(=O)Nc1ccc(-c2ccc(C[C@H](N)C(=O)O)cc2)cc1; Ala(morpholin-4-yl) = N[C@@H](CN1CCOCC1)C(=O)O; Benzoyl(3-OCH2COOH) = O=C(O)COc1cccc(C(=O)*)c1; Phe(3-CONH2) = NC(=O)c1cccc(C[C@H](N)C(=O)O)c1; Bip = N[C@@H](Cc1ccc(-c2ccccc2)cc1)C(=O)O; 2Pal = N[C@@H](Cc1ccccn1)C(=O)O; 4Pal = N[C@@H](Cc1ccncc1)C(=O)O; 2Thi = N[C@@H](Cc1cccs1)C(=O)O; Cha = N[C@@H](CC1CCCCC1)C(=O)O; d(αMeP) = C[C@]1(C(=O)O)CCCN1; Aze = O=C(O)[C@@H]1CCN1; Sar = CNCC(=O)O

Target: TNFα (Homo sapiens, UniProt P01375)
Experiment: TNF-Induced HEK-Blue Assay
Type: cell-based
Settings: HEK-Blue-CD40L cells, NF-kB-driven secreted alkaline phosphatase reporter; TNFα 0.5 ng/ml; 18 h; read-out: TNF induced HEK-Blue assay IC50 value

Sequence of TNFα (P01375 77-233 limits assumed): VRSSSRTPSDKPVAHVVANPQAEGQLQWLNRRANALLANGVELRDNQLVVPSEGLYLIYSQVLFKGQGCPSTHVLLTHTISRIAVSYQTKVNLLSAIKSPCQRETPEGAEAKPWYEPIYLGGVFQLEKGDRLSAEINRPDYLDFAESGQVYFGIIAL

IC50 [nM]	Compound
50 to 200	CC(=O)Nc1ccc(-c2ccc(C[C@@H]3NC(=O)[C@H](Cc4ccc(-c5ccccc5)cc4)NC(=O)[C@H](CC4CCCCC4)NC(=O)CSC[C@@H](C(=O)NCC(N)=O)NC(=O)[C@H](CC(C)C)NC(=O)[C@H](Cc4cnc[nH]4)NC(=O)[C@H](C(C)C)NC(=O)[C@@H]4CCCN4C(=O)[C@H](CC(N)=O)NC(=O)[C@@H](CCCNC(=N)N)NC(=O)[C@H](CC(=O)O)NC(=O)[C@@H]4CCCN4C(=O)CN(C)C3=O)cc2)cc1 [Example 253] ({CH2CO}-[Cha][Bip][Bip(4'-NHAc)][Sar]PD[dR]NPVHLCG-NH2; thioether N-13)
< 50	CC(=O)Nc1ccc(-c2ccc(C[C@@H]3NC(=O)[C@H](Cc4ccc(-c5ccccc5)cc4)NC(=O)[C@H](CN4CCOCC4)NC(=O)CSC[C@@H](C(=O)NCC(N)=O)NC(=O)[C@H](CC(C)C)NC(=O)[C@H](Cc4ccc(O)cc4)NC(=O)[C@H](C(C)C)NC(=O)[C@@H]4CCN4C(=O)[C@H](C(C)C)NC(=O)[C@@H](CCCNC(=N)N)NC(=O)[C@H](CC(=O)O)NC(=O)[C@H](Cc4ccccn4)NC(=O)CN(C)C3=O)cc2)cc1 [Example 170] ({CH2CO}-[Ala(morpholin-4-yl)][Bip][Bip(4'-NHAc)][Sar][2Pal]D[dR]V[Aze]VYLCG-NH2; thioether N-13)
200 to 2000	CC(C)C[C@@H]1NC(=O)[C@H](Cc2ccc(O)cc2)NC(=O)[C@H](C(C)C)NC(=O)[C@@H]2CCCN2C(=O)[C@H](C(C)C)NC(=O)[C@@H](CCCNC(=N)N)NC(=O)[C@H](CC(=O)O)NC(=O)[C@@H]2CCCN2C(=O)CNC(=O)[C@H](Cc2ccc(-c3ccccc3)cc2)NC(=O)[C@H](Cc2ccc(-c3ccccc3)cc2)NC(=O)[C@H](CN2CCOCC2)NC(=O)CSC[C@@H](C(=O)NCC(N)=O)NC1=O [Example 129] ({CH2CO}-[Ala(morpholin-4-yl)][Bip][Bip]GPD[dR]VPVYLCG-NH2; thioether N-13)
200 to 2000	CC(C)C[C@@H]1NC(=O)[C@H](Cc2ccc(O)cc2)NC(=O)[C@H](C(C)C)NC(=O)[C@@H]2CCCN2C(=O)[C@H](C(C)C)NC(=O)[C@@H](CCCNC(=N)N)NC(=O)[C@H](CC(=O)O)NC(=O)[C@H](Cc2ccc(O)cc2)NC(=O)CN(C)C(=O)[C@H](Cc2ccc(-c3ccccc3)cc2)NC(=O)[C@H](Cc2ccc(-c3ccc(C(=O)O)cc3)cc2)NC(=O)[C@H](Cc2c[nH]c3ccccc23)NC(=O)CSC[C@@H](C(=O)NCC(N)=O)NC1=O [Example 189] ({CH2CO}-W[Bip(4'-COOH)][Bip][Sar]YD[dR]VPVYLCG-NH2; thioether N-13)
< 50	CC[C@H](C)[C@@H]1NC(=O)[C@@H](CCCNC(=N)N)NC(=O)[C@H](CC(=O)O)NC(=O)[C@H](Cc2cnc[nH]2)NC(=O)CN(C)C(=O)[C@H](Cc2ccc(-c3ccc(NC(=O)c4cccc(OCC(=O)O)c4)cc3)cc2)NC(=O)[C@H](Cc2ccc(-c3ccc(C(=O)O)cc3)cc2)NC(=O)[C@H](CC2CCCCC2)NC(=O)CSC[C@@H](C(=O)NCC(N)=O)NC(=O)[C@H](CC(C)C)NC(=O)[C@H](Cc2cccc(C(N)=O)c2)NC(=O)[C@H](C(C)C)NC(=O)[C@@H]2CCCN2C1=O [Example 586] ({CH2CO}-[Cha][Bip(4'-COOH)][Bip(4'-NH)](Benzoyl(3-OCH2COOH))[Sar]HD[dR]IPV[Phe(3-CONH2)]LCG-NH2; thioether N-13)
< 50	CC[C@H](C)[C@@H]1NC(=O)[C@@H](CCCNC(=N)N)NC(=O)[C@H](CC(=O)O)NC(=O)[C@H](Cc2cnc[nH]2)NC(=O)CN(C)C(=O)[C@H](Cc2ccc(-c3ccc(NC(C)=O)cc3)cc2)NC(=O)[C@H](Cc2ccc(-c3ccc(C(=O)NC)cc3)cc2)NC(=O)[C@H](CC2CCCCC2)NC(=O)CSC[C@@H](C(=O)NCC(N)=O)NC(=O)[C@H](CC(C)C)NC(=O)[C@H](Cc2cnc[nH]2)NC(=O)[C@H](C(C)C)NC(=O)[C@@H]2CCCN2C1=O [Example 342] ({CH2CO}-[Cha][Bip(4'-CONHMe)][Bip(4'-NHAc)][Sar]HD[dR]IPVHLCG-NH2; thioether N-13)
< 50	CC(=O)Nc1ccc(-c2ccc(C[C@@H]3NC(=O)[C@H](Cc4ccc(-c5ccccc5)cc4)NC(=O)[C@H](CN4CCOCC4)NC(=O)CSC[C@@H](C(=O)NCC(N)=O)NC(=O)[C@H](CC(C)C)NC(=O)[C@H](CCCNC(=N)N)NC(=O)[C@H](C(C)C)NC(=O)[C@@H]4CCCN4C(=O)[C@H](C(C)C)NC(=O)[C@@H](CCCNC(=N)N)NC(=O)[C@H](CC(=O)O)NC(=O)[C@H](Cc4cnc[nH]4)NC(=O)CN(C)C3=O)cc2)cc1 [Example 212] ({CH2CO}-[Ala(morpholin-4-yl)][Bip][Bip(4'-NHAc)][Sar]HD[dR]VPVRLCG-NH2; thioether N-13)
50 to 200	CC[C@H](C)[C@@H]1NC(=O)[C@@H](CCCNC(=N)N)NC(=O)[C@H](CC(=O)O)NC(=O)[C@@H]2CCCN2C(=O)CN(C)C(=O)[C@H](Cc2ccc(-c3ccc(NC(C)=O)cc3)cc2)NC(=O)[C@H](Cc2ccc(-c3ccc(C(=O)O)cc3)cc2)NC(=O)[C@H](CC2CCCCC2)NC(=O)CSC[C@@H](C(=O)NCC(N)=O)NC(=O)[C@H](CC(C)C)NC(=O)[C@H](Cc2ccc(O)cc2)NC(=O)[C@H](C(C)C)NC(=O)[C@@H]2CCCN2C1=O [Example 256] ({CH2CO}-[Cha][Bip(4'-COOH)][Bip(4'-NHAc)][Sar]PD[dR]IPVYLCG-NH2; thioether N-13)
50 to 200	CC(C)C[C@@H]1NC(=O)[C@H](Cc2cccs2)NC(=O)[C@H](C(C)C)NC(=O)[C@@H]2CCCN2C(=O)[C@H](C(C)C)NC(=O)[C@@H](CCCNC(=N)N)NC(=O)[C@H](CC(=O)O)NC(=O)[C@H](Cc2ccccn2)NC(=O)CN(C)C(=O)[C@H](Cc2ccc(-c3ccc(NC(=O)c4cccc(CC(=O)O)c4)cc3)cc2)NC(=O)[C@H](Cc2ccc(-c3ccc(C(=O)O)cc3)cc2)NC(=O)[C@H](CC2CCCCC2)NC(=O)CSC[C@@H](C(=O)NCC(N)=O)NC1=O [Example 613] ({CH2CO}-[Cha][Bip(4'-COOH)][Bip(4'-NHCO-C6H4-3-CH2COOH)][Sar][2Pal]D[dR]VPV[2Thi]LCG-NH2; thioether N-13)
50 to 200	CC[C@H](C)[C@@H]1NC(=O)[C@@H](CCCNC(=N)N)NC(=O)[C@H](CC(=O)O)NC(=O)[C@H](Cc2cnc[nH]2)NC(=O)CN(C)C(=O)[C@H](Cc2ccc(-c3ccc(NC(C)=O)cc3)cc2)NC(=O)[C@H](Cc2ccc(-c3ccc(C(=O)O)cc3)cc2)NC(=O)[C@H](CC2CCCCC2)NC(=O)CSC[C@@H](C(=O)NCC(N)=O)NC(=O)[C@H](CC(C)C)NC(=O)[C@H](Cc2ccc(OC)cc2)NC(=O)[C@H](C(C)C)NC(=O)[C@@H]2CCCN2C1=O [Example 281] ({CH2CO}-[Cha][Bip(4'-COOH)][Bip(4'-NHAc)][Sar]HD[dR]IPVY(Me)LCG-NH2; thioether N-13)
200 to 2000	CC(C)C[C@@H]1NC(=O)[C@H](Cc2ccc(O)cc2)NC(=O)[C@H](C(C)C)NC(=O)[C@@H]2CCCN2C(=O)[C@H](C(C)C)NC(=O)[C@@H](CCCNC(=N)N)NC(=O)[C@H](CC(=O)O)NC(=O)[C@@]2(C)CCCN2C(=O)CN(C)C(=O)[C@H](Cc2ccc(-c3ccccc3)cc2)NC(=O)[C@H](Cc2ccc(-c3ccccc3)cc2)NC(=O)[C@H](CN2CCOCC2)NC(=O)CSC[C@@H](C(=O)NCC(N)=O)NC1=O [Example 102] ({CH2CO}-[Ala(morpholin-4-yl)][Bip][Bip][Sar][d(αMeP)]D[dR]VPVYLCG-NH2; thioether N-13)
50 to 200	CC[C@H](C)[C@@H]1NC(=O)[C@@H](CCCNC(=N)N)NC(=O)[C@H](CC(=O)O)NC(=O)[C@H](Cc2cnc[nH]2)NC(=O)CN(C)C(=O)[C@H](Cc2ccc(-c3ccc(NC(=O)CCCC(=O)O)cc3)cc2)NC(=O)[C@H](Cc2ccc(-c3ccccc3)cc2)NC(=O)[C@H](CC2CCCCC2)NC(=O)CSC[C@@H](C(=O)NCC(N)=O)NC(=O)[C@H](CC(C)C)NC(=O)[C@H](Cc2cnc[nH]2)NC(=O)[C@H](C(C)C)NC(=O)[C@@H]2CCCN2C1=O [Example 324] ({CH2CO}-[Cha][Bip][X73][Sar]HD[dR]IPVHLCG-NH2; thioether N-13)
< 50	CC(C)C[C@@H]1NC(=O)[C@H](Cc2cccs2)NC(=O)[C@H](C(C)C)NC(=O)[C@@H]2CCCN2C(=O)[C@H](C(C)C)NC(=O)[C@@H](CCCNC(=N)N)NC(=O)[C@H](CC(=O)O)NC(=O)[C@H](Cc2ccccn2)NC(=O)CN(C)C(=O)[C@H](Cc2ccc(-c3ccc(NC(=O)c4ccc(CC(=O)O)cc4)cc3)cc2)NC(=O)[C@H](Cc2ccc(-c3ccccc3)cc2)NC(=O)[C@H](CC2CCCCC2)NC(=O)CSC[C@@H](C(=O)NCC(N)=O)NC1=O [Example 617] ({CH2CO}-[Cha][Bip][Bip(4'-NHCO-C6H4-4-CH2COOH)][Sar][2Pal]D[dR]VPV[2Thi]LCG-NH2; thioether N-13)
200 to 2000	CC(C)C[C@@H]1NC(=O)[C@H](CCCNC(=N)N)NC(=O)[C@H](C(C)C)NC(=O)[C@@H]2CCCN2C(=O)[C@H](C(C)C)NC(=O)[C@H](CCCNC(=N)N)NC(=O)[C@H](CC(=O)O)NC(=O)[C@@H]2CCCN2C(=O)CN(C)C(=O)[C@H](Cc2ccc(-c3ccccc3)cc2)NC(=O)[C@H](Cc2ccc(-c3ccccc3)cc2)NC(=O)[C@H](Cc2ccncc2)NC(=O)CSC[C@@H](C(=O)NCC(N)=O)NC1=O [Example 11] ({CH2CO}-[4Pal][Bip][Bip][Sar]PDRVPVRLCG-NH2; thioether N-13)
200 to 2000	CC(C)C[C@@H]1NC(=O)[C@H](CCCNC(=N)N)NC(=O)[C@H](C(C)C)NC(=O)[C@@H]2CCCN2C(=O)[C@H](C(C)C)NC(=O)[C@@H](CCCNC(=N)N)NC(=O)[C@H](CC(=O)O)NC(=O)[C@@H]2CCCN2C(=O)CNC(=O)[C@H](Cc2ccc(-c3ccccc3)cc2)NC(=O)[C@H](Cc2ccc(-c3ccccc3)cc2)NC(=O)[C@H](CN2CCOCC2)NC(=O)CSC[C@@H](C(=O)NCC(N)=O)NC1=O [Example 130] ({CH2CO}-[Ala(morpholin-4-yl)][Bip][Bip]GPD[dR]VPVRLCG-NH2; thioether N-13)

Compound	IC50 [nM]
CC[C@H](C)[C@@H]1NC(=O)[C@@H](CCCNC(=N)NCc2cccc(CO)c2)NC(=O)[C@H](CC(=O)O)NC(=O)[C@H](Cc2cnc[nH]2)NC(=O)CN(C)C(=O)[C@H](Cc2ccc(-c3ccc(NC(=O)c4nn(C)c5ccccc45)cc3)cc2)NC(=O)[C@H](Cc2ccc(-c3ccccc3)cc2)NC(=O)[C@H](CC2CCCCC2)NC(=O)CSC[C@@H](C(=O)NCC(N)=O)NC(=O)[C@H](CC(C)C)NC(=O)[C@H](Cc2cnc[nH]2)NC(=O)[C@H](C(C)C)NC(=O)[C@@H]2CCCN2C1=O [Example 478] ({CH2CO}-[Cha][Bip][X5][Sar]HD[dArg(ω-Bn(3-CH2OH))]IPVHLCG-NH2; thioether N-13)	50 to 200
